# Data reported in patent US20250057191A1, “METHODS OF IMPROVING THE NUTRITIONAL STATUS OF IMMUNE STRESSED ANIMALS” (ELANCO US INC., priority 2021, published 2025).
# Marks after values point to notes of the source that are not given here.
# Columns and labels:
# serum vitamin A = assay: Example 4: serum vitamin A in nursery pigs fed full or partial compositions of Combo, weaning to end of nursery; assay type: in vivo
# Procedure: Serum samples were collected from two randomly selected pigs per pen with a total of 4 pigs per treatment at weaning (prior to access of the experimental diets) and at the end of the nursery phase when pigs reached approximately 45 lb of BW. Serum samples were analyzed for vitamin A concentration.
# nursery pigs = assay: Example 4: growth performance and livability of nursery pigs from 8 to 45 lb of BW, full vs. partial components, 65 d
# Excerpt: To evaluate the effects of dietary supplementation of the full vs. partial components of a beta-glucan/yeast cell wall/direct fed microbials/L-carnitine combination (Combo), a study was designed to feed the dietary treatments as shown Table 14 to nursery pigs from approximately 8 to 45 lb of BW post-weaning. Specifically, a total of 216 mixed-gender pigs were randomly placed in pens with 27 pigs per pen at weaning. Pens were blocked by weaning weight and pens within block were randomly assigned to one of 4 dietary treatments resulting in two pens per treatment. This study was conducted for 65 days in a 4-phase feeding program immediately after weaning.
# Concentration of DFM was no less than 7.5×10^8 cfu/g of the product. Dietary concentrations of beta-glucan, yeast cell wall, DFM and carnitine were the same for each of the treatments if included in the diets.
# [1] = end of nursery (approx. 45 lb BW)
# [2] = 8 to 45 lb BW, Combo and Yeast/DFM 1.0 lb/ton, L-Carnitine 50 ppm
# [3] = Early nursery, Phase 1 to 2, 22 d post-weaning
# [4] = Entire nursery, Phase 1 to 4, 65 d post-weaning
# [5] = Late nursery, Phase 3 to 4, 43 d post-weaning
compound,measurement,setting,value
"C[N+](C)(C)C[C@H](O)CC(=O)[O-] [carnitine, L-Carnitine]",percentage increase of serum vitamin A concentration from weaning to the end of nursery,"serum vitamin A; Combo and Yeast/DFM 1.0 lb/ton, L-Carnitine 50 ppm, FIG. 6",114%
same,"serum vitamin A concentration, Max.",serum vitamin A; [1],0.198 ppm
same,"serum vitamin A concentration, Mean",serum vitamin A; [1],0.168 ppm
same,"serum vitamin A concentration, Min.",serum vitamin A; [1],0.143 ppm
same,serum vitamin A concentration at the end of nursery,"serum vitamin A; ~45 lb BW, Combo and Yeast/DFM 1.0 lb/ton, L-Carnitine 50 ppm, 4 pigs per treatment",0.503 ppm
same,greater nursery closeout ADG compared to Control,nursery pigs; [2],29%
same,greater nursery closeout G/F compared to Control,nursery pigs; [2],29%
same,BW end of Phase 2,"nursery pigs; Early nursery, 22 d post-weaning",13.3 ^b lb
same,ADFI,"nursery pigs; Early nursery, Phase 1 to 2, 22 d",0.68 lb/day
same,ADG,nursery pigs; [3],0.16 lb/day
same,G:F,nursery pigs; [3],0.241 ^b
same,Mortality,nursery pigs; [3],31.48%
same,ADFI,"nursery pigs; Entire nursery, Phase 1 to 4, 65 d",1.01 ^a lb/day
same,ADG,nursery pigs; [4],0.31 ª lb/day
same,"ADG, change compared to Control",nursery pigs; [4],(+29%)
same,G/F,nursery pigs; [4],0.282 ^b
same,"G/F, change compared to Control",nursery pigs; [4],(+29%)
same,Mortality,nursery pigs; [4],46.30%
same,Closeout BW end of Phase 4,"nursery pigs; Late nursery, Phase 3 to 4",43.2 lb
same,ADFI,"nursery pigs; Late nursery, Phase 3 to 4, 43 d",1.32 ª lb/day
same,ADG,nursery pigs; [5],0.78 ^c lb/day
same,F/G,nursery pigs; [5],1.69
same,Mortality,nursery pigs; [5],14.81%
